ChEMBL document CHEMBL1201862, “PubChem BioAssay data set” (2004)
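These data come from cells grown in 96-well plates and exposed to compound for 48 hours at five concentrations. GI50 is the concentration that inhibits growth by half.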 Activity calls are given as the source filed them. No stated cut-off is given here; in the data, active = GI50 up to about 1.1 µM and inactive = higher.

Tests used:
Assay in all cases: growth of human tumour cells (NCI), 48 h
[1] = test system: SF-539
[2] = test system: T47D
[3] = test system: ACHN
[4] = test system: Malme-3M
[5] = test system: NCI-H23
[6] = test system: 786-0
[7] = test system: HL-60
[8] = test system: IGROV-1
[9] = test system: SN12C
[10] = test system: NCI/ADR-RES
[11] = test system: MDA-N
[12] = test system: TK-10
[13] = test system: COLO 205
[14] = test system: BT-549
[15] = test system: HCT-15
[16] = test system: HCC 2998
[17] = test system: CAKI-1
[18] = test system: MCF7
[19] = test system: Hs-578T
[20] = test system: DU-145

Compound	GI50 [1]	GI50 [2]	GI50 [3]	GI50 [4]	GI50 [5]	GI50 [6]	GI50 [7]	GI50 [8]	GI50 [9]	GI50 [10]	GI50 [11]	GI50 [12]	GI50 [13]	GI50 [14]	GI50 [15] [µM]	GI50 [16]	GI50 [17]	GI50 [18]	GI50 [19]	GI50 [20]
O=C(CSc1nc2ccccc2c(=O)n1-c1ccccc1)N/N=C1\C(=O)Nc2ccc(Br)cc21	2.1 µM (inactive)	4.92 µM (inactive)	4.57 µM (inactive)	2.26 µM (inactive)	3.42 µM (inactive)	1.95 µM (inactive)	3.21 µM (inactive)	2.14 µM (inactive)	1.71 µM (inactive)	2.99 µM (inactive)	3.01 µM (inactive)	2.39 µM (inactive)	3.74 µM (inactive)	10.3 µM (inactive)	4.39	8.17 µM (inactive)	2.48 µM (inactive)	3.49 µM (inactive)	7.05 µM (inactive)	2.13 µM (inactive)
Cc1ccc(NC(=O)c2cccc(OP(=O)(O)Nc3ccc(C)cc3)c2)cc1	> 100 µM (inactive)	79.3 µM (inactive)	57.4 µM (inactive)	> 100 µM (inactive)	> 100 µM (inactive)	> 100 µM (inactive)	> 100 µM (inactive)	> 100 µM (inactive)	> 100 µM (inactive)	> 100 µM (inactive)	63.5 µM (inactive)	> 100 µM (inactive)	> 100 µM (inactive)	> 100 µM (inactive)	> 100	> 100 µM (inactive)	> 100 µM (inactive)	> 100 µM (inactive)	> 100 µM (inactive)	> 100 µM (inactive)
NC(=O)c1cc2ccccc2o/c1=N/c1ccccc1	> 100 µM (inactive)	> 100 µM (inactive)	> 100 µM (inactive)	> 100 µM (inactive)	> 100 µM (inactive)	> 100 µM (inactive)	> 100 µM (inactive)	> 100 µM (inactive)	> 100 µM (inactive)	> 100 µM (inactive)	> 100 µM (inactive)	–	> 100 µM (inactive)	> 100 µM (inactive)	> 100	> 100 µM (inactive)	> 100 µM (inactive)	> 100 µM (inactive)	> 100 µM (inactive)	> 100 µM (inactive)
CN(CCO)CC(=O)CC(O)(C(F)(F)F)C(F)(F)F	34.7 µM (inactive)	28.4 µM (inactive)	27.7 µM (inactive)	34.7 µM (inactive)	23.6 µM (inactive)	32.6 µM (inactive)	26.4 µM (inactive)	43.2 µM (inactive)	–	41 µM (inactive)	32.1 µM (inactive)	35.4 µM (inactive)	35.3 µM (inactive)	43.7 µM (inactive)	33.3	56.2 µM (inactive)	30.1 µM (inactive)	46.2 µM (inactive)	21.3 µM (inactive)	42.7 µM (inactive)
O=C(O)CN(CC(=O)O)Cc1cc2c(cc1O)Oc1cc(O)c(CN(CC(=O)O)CC(=O)O)cc1C21OC(=O)c2ccccc21 [OFTASCEINE]	> 100 µM (inactive)	> 100 µM (inactive)	> 100 µM (inactive)	–	> 100 µM (inactive)	> 100 µM (inactive)	> 100 µM (inactive)	> 100 µM (inactive)	> 100 µM (inactive)	> 100 µM (inactive)	> 100 µM (inactive)	> 100 µM (inactive)	> 100 µM (inactive)	> 100 µM (inactive)	> 100	> 100 µM (inactive)	> 100 µM (inactive)	> 100 µM (inactive)	> 100 µM (inactive)	> 100 µM (inactive)
CCOC1CN(C)/C(=N\c2cccc3ccccc23)S1 (centres undefined)	> 10 µM (inactive)	> 10 µM (inactive)	> 10 µM (inactive)	> 10 µM (inactive)	> 10 µM (inactive)	> 10 µM (inactive)	–	> 10 µM (inactive)	> 10 µM (inactive)	> 10 µM (inactive)	> 10 µM (inactive)	> 10 µM (inactive)	> 10 µM (inactive)	> 10 µM (inactive)	> 10	> 10 µM (inactive)	> 10 µM (inactive)	> 10 µM (inactive)	> 10 µM (inactive)	> 10 µM (inactive)
O=C(N/N=C/c1ccco1)c1cc(I)cc(I)c1O	11.8 µM (inactive)	26 µM (inactive)	22 µM (inactive)	22.2 µM (inactive)	21.7 µM (inactive)	15 µM (inactive)	10.5 µM (inactive)	15.8 µM (inactive)	9.06 µM (inactive)	20.7 µM (inactive)	22.9 µM (inactive)	–	3.02 µM (inactive)	> 50 µM (inactive)	19.7	–	19.4 µM (inactive)	24.2 µM (inactive)	34.5 µM (inactive)	23.4 µM (inactive)
CCOC(=O)n1c(=O)nc2c3c(ncn21)Oc1c(c(-c2ccccc2)nn1-c1ccccc1)C3c1ccc(Cl)cc1 (centres undefined)	1.56 µM (inactive)	1.77 µM (inactive)	1.71 µM (inactive)	1.84 µM (inactive)	1.69 µM (inactive)	1.52 µM (inactive)	1.26 µM (inactive)	–	1.82 µM (inactive)	1.73 µM (inactive)	1.65 µM (inactive)	1.7 µM (inactive)	1.32 µM (inactive)	1.57 µM (inactive)	1.18	0.631 µM (active)	1.61 µM (inactive)	1.56 µM (inactive)	1.66 µM (inactive)	1.71 µM (inactive)
COc1ccc(C(=O)c2ccc(-n3c4ccccc4c4ccc5c(c43)C(=O)C=CC5=O)cc2)cc1	2.61 µM (inactive)	1.06 µM (active)	0.8 µM (active)	–	1.7 µM (inactive)	0.586 µM (active)	0.495 µM (active)	2.61 µM (inactive)	1.45 µM (inactive)	2.62 µM (inactive)	2.72 µM (inactive)	1.43 µM (inactive)	2.89 µM (inactive)	3.21 µM (inactive)	1.9	5.61 µM (inactive)	0.164 µM (active)	0.855 µM (active)	1.69 µM (inactive)	3.1 µM (inactive)
Cn1cnc(C(N)=[Se])c1N	2.02 µM (inactive)	3.65 µM (inactive)	2.6 µM (inactive)	2.69 µM (inactive)	3 µM (inactive)	2.13 µM (inactive)	–	1.33 µM (inactive)	2.29 µM (inactive)	1.89 µM (inactive)	4.98 µM (inactive)	2.64 µM (inactive)	2.09 µM (inactive)	1.13 µM (inactive)	3.63	15.4 µM (inactive)	3.27 µM (inactive)	3.15 µM (inactive)	3.74 µM (inactive)	4.1 µM (inactive)
CC1CCCC2(CC[N+](C)(CCC[N+](C)(C)C)CC2)C1 (centres undefined)	> 100 µM (inactive)	> 100 µM (inactive)	> 100 µM (inactive)	> 100 µM (inactive)	–	> 100 µM (inactive)	5.48 µM (inactive)	> 100 µM (inactive)	> 100 µM (inactive)	> 100 µM (inactive)	> 100 µM (inactive)	> 100 µM (inactive)	> 100 µM (inactive)	> 100 µM (inactive)	> 100	–	> 100 µM (inactive)	> 100 µM (inactive)	> 100 µM (inactive)	> 100 µM (inactive)
